Results as given in patent EP0174114A1, “Platinum complexes of ascorbic acid and ascorbic acid analogs” (priority 1984, dated 1986).
Values joined by “and” are separate entries in the source; they are usually repeats but may differ in a detail not shown here. Identical values can stand only once.

Tested on: S180 ascites
Assay: Screening for antitumor activity against S180 ascites (increase in life span, survivors)
Format: in vivo, female CFW Swiss mice
Description: The various Pt ascorbate analogs were tested for antitumor activity against S180 ascites in female CFW Swiss mice by the following procedure.
CFW mice, averaging 20 g, are immediately inspected and placed in newly prepared cages. On day zero the mice are inoculated with 0.2 ml of a freshly prepared saline suspension (0.15 M NaCl) containing […], or a total of 2 x 10^6 cells. This inoculum is freshly prepared using "transfer" mice which have been injected with tumor cells the previous week. This inoculum is the end product of a series of steps which involve (1) the removal of the cells from the peritoneal cavity of the sacrificed transfer mouse, (2) alternate centrifugation-washing (2-3 times with cold saline) to remove occasional blood and other undesirable components, and finally (3) dilution (1:3) of the packed cell volume with saline (the final centrifugation being carried out at 1,000 rpm for 2 min). A cell count is made on a 2,000--fold dilution of this 1:3 suspension by means of a Coulter Counter. A final dilution to 1 x 10^7 cells/ml is made based on the averaged count. On day 1, solutions of the test compounds are prepared and the mice injected, with each mouse of a set of six being injected with the same test compound at the same dose level. Also, on this day, two types of controls (6 mice/set) are employed: (1) Normal (1 set): 0.5 ml of the solvent medium used for the test compound, and (2) Positive control (1 set): a known anti-tumor agent (cis-[Pt(NH3)2cI2] in saline at 8 mg/kg), used to test the response to the biological system.
The effectiveness of a compound is measured in terms of the increase in life span (% ILS) of the test animals relative to the controls (calculated from the day of tumor inoculation, day zero). In order to standardize the test data and permit intercomparisons to be made, the day of evaluation is arbitrarily taken as that day corresponding to twice the mean life-span (or average day of death) of the normal controls. This sets a practical upper limit of 100% on the ILS attainable. For calculation purposes, survivors on the day of evaluation are considered to have died on that day. The % ILS is formulated as: [formula]
ILS values above 50% represent significant activity; those above 75% represent excellent activity.

[1] = dose 5 mg/kg, administered in HNO3 ascorbic acid
[2] = dose 10 mg/kg, administered in HNO3 ascorbic acid
[3] = dose 20 mg/kg, administered in HNO3 ascorbic acid
[4] = dose 40 mg/kg, administered in HNO3 ascorbic acid
[5] = dose 80 mg/kg, administered in HNO3 ascorbic acid
[6] = dose 160 mg/kg, administered in HNO3 ascorbic acid
[7] = dose 5 mg/kg, administered in water
[8] = dose 5 mg/kg, administered in water, injected day 1, 5 mg/kg
[9] = dose 10 mg/kg, administered in water
[10] = dose 20 mg/kg, administered in water
[11] = dose 40 mg/kg, administered in water
[12] = dose 80 mg/kg, administered in water
[13] = dose 160 mg/kg, administered in water
[14] = dose 320 mg/kg, administered in water
[15] = dose 320 mg/kg, administered in HNO3 ascorbic acid
[16] = dose 640 mg/kg, administered in HNO3 ascorbic acid
[17] = dose 640 mg/kg, administered in water
[18] = dose 800 mg/kg, administered in water
[19] = dose 1280 mg/kg, administered in water
[20] = dose 1920 mg/kg, administered in water
[21] = positive control of the same experiment, in saline at 8 mg/kg, 8 mg/kg

For “Pt(ethylenediamine)(ascorbate) [listing 1 of 2 here]”, the “activity against Sarcoma 180 ascites tumors in comparison with the unacidified complex” value (after contact with an aqueous acid solution) was “enhanced activity”, the “30-Day Survivors” value [1] was 0/6 and the “%ILS” value [1] was 3%. The “30-Day Survivors” value [2] was 0/6, the “%ILS” value [2] was 27% and the “30-Day Survivors” value [3] was 0/6. The “%ILS” value [3] was 45%, the “30-Day Survivors” value [4] was 3/6 and the “%ILS” value [4] was 75%. For the same compound, the “30-Day Survivors” value [5] was 3/6, the “%ILS” value [5] was 93% and the “30-Day Survivors” value [6] was 2/6. The “%ILS” value [6] was 70%.

“[Pt(cis-dach)(ascorbate)].3H2O [[Pt(cis-dach)-(ascorbate)] (Isomer VI)]” was tested, and the “30-Day Survivors” value [7] was 0/6, the “%ILS” value [8] was 15% and the “30-Day Survivors” value [9] was 0/6. For the same compound, the “%ILS” value [9] was 23%, the “30-Day Survivors” value [10] was 0/6 and the “%ILS” value [10] was 26%. For the same compound, the “30-Day Survivors” value [11] was 0/6, the “%ILS” value [11] was 22% and the “30-Day Survivors” value [12] was 6/6 and 0/6. The “30-Day Survivors” value [13] was 4/6 and 3/6, the “%ILS” value [13] was 99% and 77% and the “30-Day Survivors” value [14] was 5/6. For the same compound, the “%ILS” value [14] was 93%.

With “Pt(trans-R,R-dach)(ascorbate) [Pt(trans-R,R-dach) (ascorbate) (Ex. 12)]” the “30-Day Survivors” value [3] was 3/6, the “%ILS” value [3] was 67% and the “30-Day Survivors” value [4] was 3/6. The “%ILS” value [4] was 83%, the “30-Day Survivors” value [5] was 4/6 and the “%ILS” value [5] was 82%. For the same compound, the “30-Day Survivors” value [6] was 0/6, the “%ILS” value [6] was -75% and the “30-Day Survivors” value [15] was 0/6. For the same compound, the “%ILS” value [15] was -78%, the “30-Day Survivors” value [16] was 0/6 and the “%ILS” value [16] was -94%.

With “[Pt(R,R-trans-dach)(ascorbate)].3H2O [[Pt(R,R-trans-dach)-(ascorbate)]]” the “30-Day Survivors” value [9] was 0/6, the “%ILS” value [9] was 9% and the “30-Day Survivors” value [10] was 0/6. For the same compound, the “%ILS” value [10] was 6%, the “30-Day Survivors” value [11] was 0/6 and the “%ILS” value [11] was 9%. For the same compound, the “30-Day Survivors” value [12] was 0/6, the “%ILS” value [12] was 15% and 7% and the “30-Day Survivors” value [13] was 0/6 and 0/5. The “30-Day Survivors” value [14] was 3/6, the “%ILS” value [14] was 65% and 55% and the “30-Day Survivors” value [17] was 5/6. For the same compound, the “%ILS” value [17] was 100%, the “30-Day Survivors” value [18] was 5/6 and the “%ILS” value [18] was 72%. The “30-Day Survivors” value [19] was 6/6 and the “%ILS” value [19] was 100%.

“Pt(cis-dach)(ascorbate)2·2H2O [[Pt(cis-dach)-(ascorbate)2]]” was tested, and the “30-Day Survivors” value [9] was 0/6, the “%ILS” value [9] was 21% and the “30-Day Survivors” value [10] was 0/6. For the same compound, the “%ILS” value [10] was 12%, the “30-Day Survivors” value [11] was 0/6 and the “%ILS” value [11] was 29%. The “30-Day Survivors” value [12] was 0/6, the “%ILS” value [12] was 60% and the “30-Day Survivors” value [13] was 5/6. The “%ILS” value [13] was 97%, the “30-Day Survivors” value [14] was 1/6 and the “%ILS” value [14] was 68%.

With “[Pt (cis-dach) (isoascorbate) [[Pt(cis-dach)-(isoascorbate)]]” the “30-Day Survivors” value [9] was 0/6, the “%ILS” value [9] was 9% and the “30-Day Survivors” value [10] was 0/6. For the same compound, the “%ILS” value [10] was 6%, the “30-Day Survivors” value [11] was 0/6 and the “%ILS” value [11] was 6%. For the same compound, the “30-Day Survivors” value [12] was 0/6, the “%ILS” value [12] was 17% and the “30-Day Survivors” value [13] was 0/6. The “%ILS” value [13] was 4% and 10%, the “30-Day Survivors” value [14] was 0/6 and the “%ILS” value [14] was 12% and 22%. For the same compound, the “30-Day Survivors” value [17] was 2/6, the “%ILS” value [17] was 70% and the “30-Day Survivors” value [18] was 2/6. For the same compound, the “%ILS” value [18] was 92%, the “30-Day Survivors” value [19] was 3/6 and the “%ILS” value [19] was 82%. The “30-Day Survivors” value [20] was 0/6 and the “%ILS” value [20] was 54%.

In the case of “[Pt(cis-dach)(ascorbate)].3H2O [[Pt(cis-dach)-(ascorbate)] (Isomer VII)]”, the “30-Day Survivors” value [7] is reported as 0/6, the “%ILS” value [8] is reported as 12% and the “30-Day Survivors” value [9] is reported as 0/6. The “%ILS” value [9] was 20%, the “30-Day Survivors” value [10] was 0/6 and the “%ILS” value [10] was 20%. The “30-Day Survivors” value [11] was 0/6, the “%ILS” value [11] was 43% and the “30-Day Survivors” value [12] was 1/6 and 2/6. For the same compound, the “%ILS” value [12] was 71% and 79%, the “30-Day Survivors” value [13] was 5/6 and 3/6 and the “%ILS” value [13] was 98% and 69%. The “30-Day Survivors” value [14] was 0/6 and the “%ILS” value [14] was -59%.

N.N.[Cl][Pt][Cl] [Control, cis-[Pt(NH3)2cI2], reference compound] was tested, and the “Control 30-Day Survivors” value [21] was 6/6 and 1/6 and 4/6 and 3/6 and 2/6 and 0/6 and 5/6 and the “Control %ILS” value [21] was 98% and 67% and 77% and 86% and 79% and 76% and 71% and 94%.

“Pt(ethylenediamine)(ascorbate) [listing 2 of 2 here]” was tested, and the “30-Day Survivors” value [9] was 0/6, the “%ILS” value [9] was 4% and the “30-Day Survivors” value [10] was 0/6. For the same compound, the “%ILS” value [10] was 6%, the “30-Day Survivors” value [11] was 0/6 and the “%ILS” value [11] was 22%. For the same compound, the “30-Day Survivors” value [12] was 0/6, the “%ILS” value [12] was -2% and the “30-Day Survivors” value [13] was 0/6. For the same compound, the “%ILS” value [13] was 10%, the “30-Day Survivors” value [14] was 0/6 and the “%ILS” value [14] was 24%.

“Cis-[Pt(NH3)2(ascorbate)].2H2O [cis[Pt(NH3)2-(ascorbate)]]” was tested, and the “30-Day Survivors” value [9] was 0/6, the “%ILS” value [9] was -2% and the “30-Day Survivors” value [10] was 0/6. For the same compound, the “%ILS” value [10] was 6%, the “30-Day Survivors” value [11] was 0/6 and the “%ILS” value [11] was -6%. For the same compound, the “30-Day Survivors” value [12] was 0/6, the “%ILS” value [12] was -1% and the “30-Day Survivors” value [13] was 1/6. The “%ILS” value [13] was 57%, the “30-Day Survivors” value [14] was 3/6 and the “%ILS” value [14] was 79%.
